Laboratory results published in patent US20250386825A1, “Formulation for Applying to Vegetation” (Okipa Ltd, priority 2022, published 2025).
Read-outs that look alike come from different tables or passages of the source.

Test system: potato leaves
Conditions: for damage on Aug. 8, 2022 (rating score) / damage on Aug. 16, 2022 (rating score) / damage on Aug. 22, 2022 (rating score): treatment on Aug. 5, 2022, Braunschweig, score 0-10, * p < 0.05 vs untreated
Description: In addition to the direct control of weeds in arable farming and on non-crop land, the use of sodium saccharin for desiccation of potatoes was examined. Thus, the following variants were tested in a field test (soil type: sandy loam): (a) untreated, (b) 160 g/l and (c) 320 g/l sodium saccharin. In this example, the addition of an additive was deliberately avoided in order to assess the specific effect of sodium saccharin. The experimental design was a fully randomized block design with 3 replicates and a plot size of 2.25 m^2.
In each case, a row of potatoes 3 m in length was applied using a 5 l hand-held sprayer (®Gloria) with a conventional annular nozzle at a pressure of 3-4 bar. As a result, the degree of damage was recorded in the form of the following rating score.
Score (damage) of the potato leaves after treatment with Sodium saccharin (treatment on Aug. 5, 2022, Braunschweig, conventional cultivation)

For O=C1NS(=O)(=O)c2ccccc21.[Na] [Sodium saccharin, sodium saccharin], which “damage on Aug. 8, 2022 (rating score)” value (160 g/l, no additive) is on record?
The value was 1.3*.

And the “damage on Aug. 16, 2022 (rating score)” value (160 g/l, no additive)?
Its value is 5.3*.

What about the “damage on Aug. 22, 2022 (rating score)” value (160 g/l, no additive) of the same compound?
The value was 8.3*.

What about the “damage on Aug. 8, 2022 (rating score)” value (320 g/l, no additive) of the same compound?
Its value is 3.3*.

What about the “damage on Aug. 16, 2022 (rating score)” value (320 g/l, no additive) of the same compound?
The value was 7.7*.

And the “damage on Aug. 22, 2022 (rating score)” value (320 g/l, no additive)?
The value was 9.3*.

And the “desiccation of potato leaves (trend in words)” value (field test, 160 g/l and 320 g/l, no additive)?
The value was “sufficiently desiccated”.

What about the “desiccation of potato leaves (in words)” value (low concentration (160 g/l), after 17 days) of the same compound?
Its value is “sufficient desiccation”.
